In US20190255091A1, “RNAi AGENTS FOR [sequence] B VIRUS INFECTION” (priority 2016, published 2019):
Where “and” joins values, the source holds several entries; their conditions need not be identical. Equal entries are not always repeated.

How the values were obtained:
Format in all cases: in vivo
Hepatitis B Virus (HBV) [1] = assay: Serum HBeAg levels in pHBV model mice (ELISA); details: 0.8 mg/kg, injection on day 1 and day 22, Example 16
Excerpt: (§1) Six to eight-week-old female NOD.CB17-Prkdscid/NcrCrl (NOD-SCID) mice were transiently transfected in vivo with MC-HBV1.3 by hydrodynamic tail vein injection (Yang P L et al. “Hydrodynamic injection of viral DNA: a mouse model of acute hepatitis B virus infection,” PNAS USA 2002 Vol. 99: p. 13825-13830), administered 30 to 45 days prior to administration of an HBV RNAi agent or control. MC-HBV1.3 is a plasmid-derived minicircle that contains the same terminally redundant human hepatitis B virus sequence HBV1.3 as in plasmid pHBV1.3 and in the HBV1.3.32 transgenic mice (GenBank accession #V01460) (Guidotti L G et al., “High-level hepatitis B virus replication in transgenic mice,” J Virol 1995 Vol. 69, p 6158-6169.). 5 or 10 μg MC-HBV1.3 in Ringer's Solution in a total volume of 10% of the animal's body weight was injected into mice via tail vein to create pHBV model of chronic HBV infection. The solution was injected through a 27-gauge needle in 5-7 seconds as previously described (Zhang G et al., “High levels of foreign gene expression in hepatocytes after tail vein injection of naked plasmid DNA.” Human Gene Therapy 1999 Vol. 10, p 1735-1737.). At pre-dose (either day 1 pre-dose, day −1, or day −2), Hepatitis B surface antigen (HBsAg) HBsAg expression levels in serum were measured by ELISA and the mice were grouped according to average HBsAg expression levels.
(§2) HBV expression levels were normalized to pre-administration expression levels and to control mice injected with phosphate buffered saline (“PBS”).
HBeAg analysis was performed with the HBeAg enzyme linked immunosorbent assay (ELISA) as described by the manufacturer (DiaSorin) using serum diluted 4- to 20-fold in 5% nonfat dry milk. The amount of antigen was determined in the linear range of the assay and quantitated against HBeAg protein standards (Fitzgerald Industries International, catalog #30-AH18, Acton, Mass.).
HBeAg expression for each animal was normalized to the control group of mice injected with PBS in order to account for the non-treatment related decline in expression of MC-HBV1.3. For evaluation of HBeAg in serum, HBeAg is analyzed from pooled group or subgroup serum samples. First, the HBeAg level for each pooled group or subgroup was divided by the pre-treatment level of expression in the same group or subgroup in order to determine the ratio of expression “normalized to pre-treatment”. Expression at a specific time point was then normalized to the control group by dividing the “normalized to pre-treatment” ratio for a group or subgroup by the average “normalized to pre-treatment” ratio of all samples from the normal PBS control group.

Hepatitis B Virus (HBV) [2] = assay: Serum HBsAg levels in pHBV model mice (ELISA); set-up: key to Average HBsAg levels normalized to pre-treatment (day −1) and PBS control / Average HBsAg levels normalized to pre-treatment and PBS control: fraction of pre-treatment level, relative to PBS control mean; details: for Average HBsAg normalized to pre-treatment and PBS control: 2.0 mg/kg, single s.c. injection on day 1
Excerpt: as §1, §2
Mice were anesthetized with 2-3% isoflurane and blood samples were collected from the submandibular area into serum separation tubes (Sarstedt AG & Co., Nümbrecht, Germany). Blood was allowed to coagulate at ambient temperature for 20 min. The tubes were centrifuged at 8,000×g for 3 min to separate the serum and stored at 4° C.
Serum was collected and diluted 10 to 8000-fold in PBS containing 5% nonfat dry milk. […] HBsAg levels were determined with a GS HBsAg EIA 3.0 kit (Bio-Rad Laboratories, Inc., Redmond, Wash.) as described by the manufacturer. Recombinant HBsAg protein, ayw subtype, also diluted in nonfat milk in PBS, was used as a primary standard (Aldevron).
HBsAg expression for each animal was normalized to the control group of mice injected with PBS in order to account for the non-treatment related decline in expression of MC-HBV1.3. First, the HBsAg level for each animal at a time point was divided by the pre-treatment level of expression in that animal in order to determine the ratio of expression “normalized to pre-treatment”. Expression at a specific time point was then normalized to the control group by dividing the “normalized to pre-treatment” ratio for an individual animal by the average “normalized to pre-treatment” ratio of all mice in the normal PBS control group.

Hepatitis B Virus (HBV) [3] = assay: Serum HBV DNA levels in pHBV model mice (qPCR); details: 0.8 mg/kg, injection on day 1 and day 22, Example 16
Excerpt: as §1, §2
Equal volumes of serum from mice in a group or subgroup were pooled to a final volume of 100 μL. DNA was isolated from serum samples using the QIAamp MinElute Virus Spin Kit (Qiagen, Valencia, Calif.) following the manufacturer's instructions. Sterile 0.9% saline was added to each sample to a final volume of 200 μL. Serum samples were added to tubes containing buffer and protease. Carrier RNA was added to aid in the isolation of small amounts of DNA. […] After incubating 15 min at 56° C., nucleic acids were precipitated from the lysates with ethanol and the entire solution applied to a column. After washing, the samples were eluted into a volume of 50 μL Buffer AVE.
The number of copies of HBV genomes in DNA isolated from the pHBV mouse model serum was determined by qPCR. Plasmid pSEAP-HBV353-777, encoding a short segment of the HBV genome within the S gene (bases 353-777 of GenBank accession #V01460), was used to create a six log standard curve. Samples with recovery of DNA below 2 standard deviations from the average, based on detection of pHCR/UbC-SEAP were omitted. TaqMan chemistry-based primers and probes with fluor/ZEN/IBFQ are utilized.
qPCR assays were performed on a 7500 Fast or StepOne Plus Real-Time PCR system (Life Technologies). For evaluation of HBV DNA in serum, DNA was isolated from singlet or duplicate purification steps from pooled group serum samples. Quantitations of HBV DNA and recovery control plasmid were determined by qPCR reactions performed in triplicate. The probes to quantitate HBV and pHCR/UbC-SEAP were included in each reaction.

AD05070: HBV RNAi agent duplex AM06606-AS/AM06605-SS (antisense UACCAAUUUAUGCCUACAGCG; sense CGCUGUAGGCAUAAAUUGGUA; chemistry not fully specified)
Average HBeAg levels normalized to pre-treatment and PBS control (Hepatitis B Virus (HBV) [1]; Day 8): 0.634
Average HBeAg levels normalized to pre-treatment and PBS control (Hepatitis B Virus (HBV) [1]; Day 15): 0.594 ± 0.082
Average HBeAg levels normalized to pre-treatment and PBS control (Hepatitis B Virus (HBV) [1]; Day 22): 0.840 ± 0.152
Average HBeAg levels normalized to pre-treatment and PBS control (Hepatitis B Virus (HBV) [1]; Day 29): 0.271 ± 0.029
Average HBsAg levels normalized to pre-treatment and PBS control (Hepatitis B Virus (HBV) [2]; Day 8, 0.8 mg/kg, injection on day 1 and day 22, Example 16): 0.446 ± 0.143
Average HBsAg levels normalized to pre-treatment and PBS control (Hepatitis B Virus (HBV) [2]; Day 8, 0.8 mg/kg, single s.c. injection day 1, Example 8): 0.355 ± 0.099 and 0.271 ± 0.058
Average HBsAg normalized to pre-treatment and PBS control (Hepatitis B Virus (HBV) [2]; Day 8, Example 15): 0.081 ± 0.026
Average HBsAg levels normalized to pre-treatment and PBS control (Hepatitis B Virus (HBV) [2]; Day 14, 0.8 mg/kg, single s.c. injection day 1, Example 8): 0.366 ± 0.069 and 0.334 ± 0.060
Average HBsAg levels normalized to pre-treatment and PBS control (Hepatitis B Virus (HBV) [2]; Day 14, 4.0 mg/kg, single s.c. injection day 1, Example 8): 0.069 ± 0.039 and 0.079 ± 0.047
Average HBsAg levels normalized to pre-treatment and PBS control (Hepatitis B Virus (HBV) [2]; Day 15, 0.8 mg/kg, injection on day 1 and day 22, Example 16): 0.376 ± 0.120
Average HBsAg normalized to pre-treatment and PBS control (Hepatitis B Virus (HBV) [2]; Day 15, Example 15): 0.127 ± 0.031
Average HBsAg levels normalized to pre-treatment and PBS control (Hepatitis B Virus (HBV) [2]; Day 21, 0.8 mg/kg, single s.c. injection day 1, Example 8): 0.464 ± 0.055
Average HBsAg levels normalized to pre-treatment and PBS control (Hepatitis B Virus (HBV) [2]; Day 21, 4.0 mg/kg, single s.c. injection day 1, Example 8): 0.145 ± 0.082
Average HBsAg levels normalized to pre-treatment and PBS control (Hepatitis B Virus (HBV) [2]; Day 22, 0.8 mg/kg, injection on day 1 and day 22, Example 16): 0.474 ± 0.149
Average HBsAg normalized to pre-treatment and PBS control (Hepatitis B Virus (HBV) [2]; Day 22, Example 15): 0.223 ± 0.057
Average HBsAg levels normalized to pre-treatment and PBS control (Hepatitis B Virus (HBV) [2]; Day 28, 0.8 mg/kg, single s.c. injection day 1, Example 8): 0.624 ± 0.053
Average HBsAg levels normalized to pre-treatment and PBS control (Hepatitis B Virus (HBV) [2]; Day 28, 4.0 mg/kg, single s.c. injection day 1, Example 8): 0.135 ± 0.061
Average HBsAg levels normalized to pre-treatment and PBS control (Hepatitis B Virus (HBV) [2]; Day 29, 0.8 mg/kg, injection on day 1 and day 22, Example 16): 0.338 ± 0.123
Average HBsAg normalized to pre-treatment and PBS control (Hepatitis B Virus (HBV) [2]; Day 29, Example 15): 0.330 ± 0.112
Average HBsAg normalized to pre-treatment and PBS control (Hepatitis B Virus (HBV) [2]; Day 36, Example 15): 0.472 ± 0.121
Average HBsAg normalized to pre-treatment and PBS control (Hepatitis B Virus (HBV) [2]; Day 43, Example 15): 0.515 ± 0.126
Average HBsAg normalized to pre-treatment and PBS control (Hepatitis B Virus (HBV) [2]; Day 50, Example 15): 0.689 ± 0.167
knockdown of HBsAg compared to PBS control (Hepatitis B Virus (HBV) [2]; Example 15, administered alone or in combination with AD04872, across each of the time points measured): significant knockdown of HBsAg
Average Serum HBV DNA levels normalized to pre-treatment and PBS control (Hepatitis B Virus (HBV) [3]; Day 8): 1.124 ± 0.142
Average Serum HBV DNA levels normalized to pre-treatment and PBS control (Hepatitis B Virus (HBV) [3]; Day 15): 0.742 ± 0.127
Average Serum HBV DNA levels normalized to pre-treatment and PBS control (Hepatitis B Virus (HBV) [3]; Day 22): 0.807 ± 0.192
